# According to patent US4162253A, “Acaricidal agents” (Pfizer Inc., priority 1975, dated 1979):
# Tested on: Adult Boophilus microplus
# Test: Topical application test on fully engorged adult Boophilus microplus ticks; overall reduction in anticipated reproduction (eggs laid and hatching)
# Type: in vivo
# Conditions: Rhipicephalus microplus, read-out: In Vitro Activity (topical application) vs. Adult Boophilus microplus % Effect; for inhibition at 4 µg/tick: 4 μg/tick; for inhibition at 8 µg/tick: 8 μg/tick; for inhibition at 10 µg/tick: 10 μg/tick; for inhibition at 1 µg/tick: 1 μg/tick; for inhibition at 2 µg/tick: 2 μg/tick; for inhibition at 0.5 µg/tick: 0.5 μg/tick
# Protocol: In one test, five freshly collected, fully engorged Boophilus microplus adult ticks are used for each acaricidal compound. Using a micro-pipette, 10 micro-liters of a solution containing 10 micro-grams of the acaricidal compound in ethanol or acetone, is applied to the dorsal surface of each of the ticks. The treated ticks are placed in weighted 1"×2" glass vials, weighted and stored at 26° C. and 80% relative humidity in plastic boxes for two weeks. The ticks are then removed from the vials and the vials weighted to give the weight of eggs laid by the ticks. Any reduction in the egg laying of the treated ticks is caculated as a percentage of the eggs laid by untreated control ticks.
# The eggs are returned to the incubator for a further 3 weeks after which time the percentage of eggs hatching is estimated.
# The percentage effect is calculated as the overall reduction in the anticipated reproduction of the ticks using the weight of eggs laid and the percentage of eggs hatching.
# The test may be repeated using smaller amounts of the acaricidal compound for sufficiently active compounds.
# The activity of many of the compounds of the Examples detailed hereinafter against the tick Boophilus microplus has been determined.
Compound,inhibition at 4 µg/tick,inhibition at 8 µg/tick,inhibition at 10 µg/tick,inhibition at 1 µg/tick,inhibition at 2 µg/tick,inhibition at 0.5 µg/tick
CCCCCCCCCCCCC[N+]1=C2SC=C(c3ccccc3)N2CCCC1 [Example 31],0%,52%,100%,–,–,–
CCCCCCCCCCCCCCCC[N+]1=C2SC(c3ccccc3)=CN2CCC1 [Example 16],–,–,33%,–,–,–
CCCCCCCCCCCCCCC[N+]1=C2SC=C(c3ccccc3)N2CCC1 [Example 2],77%,100%,100%,16%,67%,–
CCCCCCCCCCCCCCC[N+]1=C2SC(C)=C(c3ccccc3)N2CC1 [Example 43],96%,100%,100%,23%,72%,4%
CCCCCCCCCCCCCCCCCC[N+]1=C2SC=C(C)N2CCC1 [Example 8],–,–,26%,–,–,–
CCCCCCCCCCCCCCC[N+]1=C2SC=C(C)N2CCC1 [Example 10],–,–,72%,–,–,–
"CCCCCCCCCCCCCCCC[N+]1=C2SC(C)=C(CC)N2CCC1 [Example 1, 8-cetyl-3-ethyl-2-methyl-6,7-dihydro[5H]thiazolo[3,2-a]pyrimidinium bromide]",100%,100%,100%,59%,99%,24%
CCCCCCCCCCCCCC[N+]1=C2SC=C(C)N2CCCC1 [Example 28],74%,83%,100%,13%,52%,–
CCCCCCCCCCCCCCCCC[N+]1=C2SC(C)=C(c3ccccc3)N2CC1 [Example 44],93%,100%,100%,63%,89%,0%
CCCCCCCCCCCCCCCCCC[N+]1=C2SC=C(C)N2CCCC1 [Example 25],82%,78%,98%,20%,40%,–
CCCCCCCCCCCCCCCC[N+]1=C2SC=C(C)N2CCC1 [Example 19],9%,28%,49%,–,0%,–
CCCCCCCCCCCCC[N+]1=C2SC=C(C)N2CCCC1 [Example 27],63%,75%,86%,38%,55%,40%
CCCCCCCCCCCCCCCCC[N+]1=C2SC(C)=C(c3ccccc3)N2CCC1 [Example 15],99.9%,100%,100%,9%,29%,11%
"CCCCCCCCCCCCCCC[N+]1=C2SC=C(c3ccccc3)N2CCCC1 [Example 26, 9-Pentadecyl-3-phenyl-5,6,7,8-tetrahydrothiazolo[3,2-a][1,3]diazepinium bromide]",61%,92%,99%,12%,43%,14%
"CCCCCCCCCCCCCCCC[N+]1=C2SC(C)=C(c3ccccc3)N2CCC1 [Example 7, 8-cetyl, 2-methyl-3-phenyl-6,7-dihydro[5H]thiazolo[3,2-a]pyrimidinium bromide]",99%,100%,100%,54%,92%,31%
CCCCCCCCCCCCCCCCCC[N+]1=C2SC=C(c3ccccc3)N2CCC1 [Example 14],–,–,47%,–,–,–
CCCCCCCCCCCCCCC[N+]1=C2SC=C(C)N2CCCC1 [Example 24],97%,100%,100%,48%,70%,13%
"CCCCCCCCCCCCCCCC[N+]1=C2SC=C(C)N2CCCC1 [Example 20, 9-cetyl-3-methyl-5,6,7,8-tetrahydro-thiazolo[3,2-a][1,3]diazepinium bromide]",99%,100%,100%,29%,67%,0%
"CCCCCCCCCCCCCCCC[N+]1=C2SC(C)=C(c3ccccc3)N2CCCC1 [Example 23, 9-hexadecyl-2-methyl-3-phenyl-5,6,7,8-tetrahydro-thiazolo[3,2-a][1,3]diazepinium bromide]",100%,100%,100%,60%,98%,6%
CCCCCCCCCCCCCCCC[N+]1=C2SC=C(c3ccccc3)N2CCCC1 [Example 21],98%,100%,100%,0%,83%,–
CCCCCCCCCCCCCCCCC[N+]1=C2SC=C(c3ccccc3)N2CCC1 [Example 6],79%,98%,100%,7%,43%,–
CCCCCCCCCCCCCC[N+]1=C2SC=C(c3ccccc3)N2CCCC1 [Example 29],55%,100%,100%,19%,11%,–
CCCCCCCCCCCCCCCCCC[N+]1=C2SC(C)=C(c3ccccc3)N2CC1 [Example 45],–,–,88%,–,–,–
CCCCCCCCCCCCCCCC[N+]1=C2SC=CN2CCCC1 [Example 36],–,–,26%,–,–,–
CCCCCCCCCCCCCCCCCC[N+]1=C2SC(C)=C(c3ccccc3)N2CCC1 [Example 12],38%,87%,100%,19%,22%,16%
CCCCCCCCCCCCCCCCC[N+]1=C2SC=C(C)N2CCC1 [Example 9],–,–,42%,–,–,–
CCCCCCCCCC[N+]1=C2SC(C)=C(c3ccccc3)N2CC1 [Example 46],–,–,95%,–,–,–
CCCCCCCCCCCCCCCC[N+]1=C2SC=C(c3ccc(F)cc3)N2CCCC1 [Example 41],16%,43%,92%,18%,18%,5%
CCCCCCCCCCCCCCC[N+]1=C2SC(C)=C(c3ccccc3)N2CCC1 [Example 11],100%,100%,100%,36%,73%,30%
